# Entries after “also recorded” stand apart in the source; their conditions may differ.
# What was measured:
# [1] = molecular target: RgSBP (RUMGNA_02698, solute binding protein); experiment: Isothermal titration calorimetry (ITC) of RgSBP binding; parameters: species or system R. gnavus ATCC 29149; details: 50 mM Tris-HCl pH 7.5; single-binding site model; triplicate
# Experimental: Isothermal titration calorimetry (ITC) experiments were performed using the PEAQ-ITC system (Malvern, Malvern, UK) with a cell volume of 200 μl. Prior to titration, protein samples were exhaustively dialysed into 50 mM Tris-HCl pH 7.5. The ligand was dissolved in the dialysis buffer. The cell protein concentration was 100 μM and the syringe ligand concentration was 2 mM. Controls with titrant (sugar) injected into the buffer only were subtracted from the data. The analysis was performed using the Malvern software, using a single-binding site model. Experiments were carried out in triplicate.
# [2] = molecular target: T1, E. coli sialic acid aldolase (EcNanA) (Escherichia coli, UniProt P0A6L4); experiment: Sialic acid aldolase activity assay coupled to lactate dehydrogenase, EcNanA; type: biochemical; details: 10 mM sialic acid, 37° C., pH 7.0, A340 nm
# T1 construct: purchased Carbosynth, UK CAS: 9027-60-5 (catalogue number not given)
# Experimental: Aldolase cleavage was measured by monitoring the decrease in absorbance at 340 nm (A340 nm) as NADH is converted to NAD by lactate dehydrogenase in a coupled reaction where pyruvate is released from sialic acid by the aldolase. Reactions were performed in a 100 μl volume with final concentrations of 150 μM NADH (Sigma, St Louis, USA), 0.5 U LDH (Sigma, St Louis, USA), 10 mM sialic acid (Neu5Ac or 2,7-anhydro-Neu5Ac) and 1.5 μg purified RgNanA or EcNanA (E. coli aldolase CAS: 9027-60-5, Carbosynth, UK) in 50 mM Na-phosphate buffer (pH 7.0). The reactions were performed at 37° C. and monitored using FLUOstar OPTIMA (BMG LABTECH). For kinetics experiments, the sialic acid concentration was varied at 20, 10, 5, 4, 2, 1, 0.4, 0.2, 0.1 mM and the initial rate of reaction determined for each concentration in triplicate before analysis was performed by fitting the data to a Michaelis-Menten using Graph Pad Prism (V 5.03). […]
# The first step of sialic acid metabolism is the conversion of sialic acid to ManNAc and pyruvate catalysed by a sialic acid aldolase (NanA). […] The substrate specificity of RgNanA was determined using a coupled activity assay where pyruvate released during the conversion of sialic acid to ManNAc is converted to lactate by a lactate dehydrogenase and the subsequent loss of absorbance at 340 nm measured as NADH is converted to NAD^+. […]
# [3] = test system: RgSBP (RUMGNA_02698, solute binding protein); experiment: Fluorescence spectroscopy of ligand binding to RgSBP; parameters: species or system R. gnavus ATCC 29149; details: for change in fluorescence emission at 350 nm upon sequential additions of ligand: sequential additions of 10 μM ligand
# Experimental: Ligand binding to RgSBP was investigated by measuring changes in the intrinsic protein fluorescence upon addition of 2,7-anhydro-Neu5Ac or Neu5Ac as potential ligands. (Andrew Bell with help from student in Gavin Thomas's Group,York). Due to the presence of […] in RgSBP, fluorescence changes were measured by exciting at 297 nm. Under these conditions the protein has a maximal emission at 331 nm. […] 2,7-Anhydro-Neu5Ac caused a 16% quench in the fluorescence of the protein at ligand saturation (FIG. 3A).
# The binding of RgSBP to 2,7-anhydro-Neu5Ac or Neu5Ac was further investigated by measuring changes in fluorescence emission at 350 nm when RgSBP was excited at 297 nm upon sequential additions of 10 μM ligands.
# All protein fluorescence experiments used a FluoroMax 3 fluorescence spectrometer with connecting water bath at 37° C. Because of the presence of 15 […] residues, the protein was excited at 297 nm with slit widths of 5 nm. […] Cumulative fluorescence changes from titration of the protein with ligand were plotted in GraphPad and fitted to a single rectangular hyperbola. The Kd values reported were averaged from three separate ligand titration experiments.
# To determine the specificity of the predicted transporter, the gene encoding the predicted SBP was amplified by PCR from the R. gnavus ATCC 29149 genome, cloned into the pHISTEV expression vector, heterologously expressed in E. coli and the His6-tag recombinant protein purified by immobilised metal ion affinity chromatography (IMAC). Ligand binding to RgSBP was investigated by measuring changes in the intrinsic protein fluorescence upon addition of 2,7-anhydro-Neu5Ac or Neu5Ac as potential ligands. Due to the presence of 7 tryptophan residues in RgSBP, fluorescence changes were measured by exciting at 297 nm. Under these conditions the protein has a maximal emission at 331 nm. […] To confirm the novel specificity of 2,7-anhydro-Neu5Ac over Neu5Ac we followed sequential changes in fluorescence at 350 nm following additions of 10 μM of the two ligands. […] Conversely, when 2,7-anhydro-Neu5Ac is added first the quench is observed and additions of 10 μM Neu5Ac caused no further reduction or reverse in the intensity (FIG. 3d), indicating Neu5Ac is unable to displace 2,7-anhydro-Neu5Ac, further supporting the specificity of the interaction between RgSBP and 2,7-anhydro-Neu5Ac.
# T1 sequence (P0A6L4 whole entry): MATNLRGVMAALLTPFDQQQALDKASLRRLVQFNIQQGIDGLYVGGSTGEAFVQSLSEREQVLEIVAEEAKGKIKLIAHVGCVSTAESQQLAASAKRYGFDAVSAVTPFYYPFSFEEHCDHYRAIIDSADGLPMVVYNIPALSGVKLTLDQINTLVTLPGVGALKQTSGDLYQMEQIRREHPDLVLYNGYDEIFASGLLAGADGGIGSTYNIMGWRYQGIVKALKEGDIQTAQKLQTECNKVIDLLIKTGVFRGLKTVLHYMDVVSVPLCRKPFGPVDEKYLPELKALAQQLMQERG
SMILES,Kd [1],aldolase activity against substrate [2],"quench in the fluorescence of the protein ([3]; RgSBP excited at 297 nm, 10 μM or 20 μM ligand, ligand saturation)",change in fluorescence emission at 350 nm upon sequential additions of ligand ([3]; excited at 297 nm),"Kd ([3]; titration of 0.5 μM RgSBP, triplicate, hyperbolic fit)",Kd (ITC) [1],"change in the fluorescence emission spectra of RgSBP ([3]; excited at 297 nm, ligand at 10 μM, 20 μM or 70 μM)"
"CC(=O)N[C@H]1C2OC(C(=O)O)(C[C@@H]1O)O[C@@H]2[C@H](O)CO (stereo partly drawn) [2,7-anhydro-Neu5Ac]",2420 ± 270 nM,neither enzyme showed activity,~16%,a quench is observed; also recorded: large decrease in intensity,1350 nM,,
"CC(=O)N[C@H]1[C@H]([C@H](O)[C@H](O)CO)OC(O)(C(=O)O)C[C@@H]1O (stereo partly drawn) [Neu5Ac, N-acetylneuraminic acid]",,showed activity,,no change in fluorescence is observed; also recorded: no change in intensity was observed,,No binding was observed; also recorded: does not bind,did not lead to any change in the spectra

# — patent publication US20210254138A1, “SIALIC ACID TRANSPORTER PROTEINS AS BIOMARKERS AND DRUG TARGETS” (Quadram Institute Bioscience, priority 2018, published 2021)
